Source: publication PMC8245786, “Comparative Studies on Multi-Component Pharmacokinetics of Polygonum multiflorum Thunb Extract After Oral Administration in Different Rat Models” (Frontiers in Pharmacology, 2021)

What was measured:
MDR1 = test: Expression level of MDR1 in rat liver (UHPLC-MS/MS signature peptide) and correlation with AUC; format: in vivo; settings: before administration of AE-PM
Description: (§1) The detection method for UGT1A1 and nine other transporter proteins in the liver was comprehensively investigated in our study (35).
(§2) The sequence of characteristic peptides that corresponded to UGT1A1 and the other nine transporter proteins were based on our previous experiments and listed in Table 3 .
(§3) Total membrane protein was isolated (in triplicate) from liver tissue samples according to the Native Membrane Protein Extraction Kit protocol. Subsequently, protein concentrations were determined by the BCA Protein Assay Kit. 10 µl of 5 mg/ml (or lower concentration) of a hepatocyte membrane protein incubated with 20 µl of dithiothreitol (100 mM) and 50 µl of ammonium bicarbonate buffer (50 mM, pH 7.8). After incubation at 95°C for 5 min, 20 µl of iodoacetamide (20 mM) was added to the mixture, followed by incubation at 37°C for 20 min in the dark. To concentrate the samples, ice-cold methanol (0.5 ml), chloroform (0.2 ml), and water (0.2 ml) were added. After centrifugation at 4°C for 5 min at 16,000 g, the supernatant was discarded and the pellet was washed once with ice-cold methanol (0.25 ml) and resuspended with 40 µl of reconstitution solution (equal volume of 3% sodium deoxycholate (w/v) and 5 mM ammonium bicarbonate buffer). Finally, the protein sample was digested with 10 µl of trypsin. The protein-to-trypsin ratio was 25:1 (w/w). […]

UGT1A1 = test: Expression level of UGT1A1 in rat liver (UHPLC-MS/MS signature peptide) and correlation with AUC; format: in vivo; settings: before administration of AE-PM
Description: as §1, §2, §3

OATP1A4 = test: Expression level of OATP1A4 in rat liver (UHPLC-MS/MS signature peptide) and correlation with AUC; format: in vivo; settings: before administration of AE-PM
Description: as §1, §2, §3

OCT1 = test: Expression level of OCT1 in rat liver (UHPLC-MS/MS signature peptide) and correlation with AUC; format: in vivo; settings: before administration of AE-PM
Description: as §1, §2, §3

NTCP = test: Expression level of NTCP in rat liver (UHPLC-MS/MS signature peptide) and correlation with AUC; format: in vivo; settings: before administration of AE-PM
Description: as §1
An Agilent 1290 Infinity series UHPLC system coupled to an Agilent 6460 series MS/MS system (Agilent Technologies, Santa Clara, CA, United States) was applied to quantitate the signature peptides in ESI positive ionization mode. […] The sequence of characteristic peptides that corresponded to UGT1A1 and the other nine transporter proteins were based on our previous experiments and listed in Table 3 .
Total membrane protein was isolated (in triplicate) from liver tissue samples according to the Native Membrane Protein Extraction Kit protocol. Subsequently, protein concentrations were determined by the BCA Protein Assay Kit. 10 µl of 5 mg/ml (or lower concentration) of a hepatocyte membrane protein incubated with 20 µl of dithiothreitol (100 mM) and 50 µl of ammonium bicarbonate buffer (50 mM, pH 7.8). After incubation at 95°C for 5 min, 20 µl of iodoacetamide (20 mM) was added to the mixture, followed by incubation at 37°C for 20 min in the dark. To concentrate the samples, ice-cold methanol (0.5 ml), chloroform (0.2 ml), and water (0.2 ml) were added. […]

[1] = Serum biochemistry in ANIT and CCl4 liver injury model rats; format: in vivo, rat; settings: 24 h after model induction; before AE-PM
Description: Additionally, group 3 represented the CCl4-induced hepatocytes injury model, which was treated with pure CCl4 (5 ml/kg, s. c.) on day 0, 50% CCl4 (diluted in olive oil) (3 ml/kg, s. c.) on day 3, and 20% CCl4 (diluted in olive oil) (3 ml/kg, s. c.) on day 6. After 24 h, five rats selection for serum and liver collection from each of the three groups. Blood samples were collected in a coagulation tube, and were centrifuged at 4°C for 15 min (4,000 rpm), The resultant serum was used for the ALT, AST, TBIL, DBIL, TBA and ALP assays. Liver samples were dissected and stored at −80°C for further analysis, whereas the central part of the right large lobe of the liver was used for histological examination.

BSEP = test: Expression level of BSEP in rat liver (UHPLC-MS/MS signature peptide) and correlation with AUC; format: in vivo; settings: before administration of AE-PM
Description: as §1, §2, §3

| SMILES | Reduction of MDR1 expression level compared with the control group (MDR1) [%] | Reduction of UGT1A1 expression level compared with the control group (UGT1A1) [%] | Reduction of OATP1A4 expression level compared with the control group (OATP1A4) [%] | Reduction of OCT1 expression level compared with the control group (OCT1) [%] | Reduction of NTCP expression level compared with the control group (NTCP) [%] | Increase of serum ALT compared with the control group [1] [folds] | Increase of serum AST compared with the control group [1] [folds] | Reduction of BSEP expression level compared with the control group (BSEP) [%] |
| --- | --- | --- | --- | --- | --- | --- | --- | --- |
| ClC(Cl)(Cl)Cl [CCl4, Carbon tetrachloride] | 34.15 | 31.18 | 46.11 | 22.30 | 15.75 | 4.45 | 2.68 | 26.92 |
| S=C=Nc1cccc2ccccc12 [ANIT, alpha-naphthylisothiocyanate] | – | – | – | – | 38.02 | – | – | – |
